Results as given in article PMC4159296, “Antibodies to the Extracellular Pore Loop of TRPM8 Act as Antagonists of Channel Activation” (PLoS ONE, 2014).
Entries after “also recorded” stand apart in the source; their conditions may differ. Like-named read-outs stand apart in the source and are kept apart here.

What was measured:
Assay type in all cases: cell-based
[1] = target: T1, human TRPM8 (Homo sapiens, UniProt Q7Z2W7); assay: agonist-induced 45Ca2+ uptake assay, CHO cells expressing human TRPM8; details: for block of icilin-induced 45Ca2+ uptake, human TRPM8 in CHO cells: single concentration/volume, 30 µl antibody solution, stock concentrations not provided, Fig. 6A; for IC50: CHO cells, mean ± SD
T1 construct: expressed in transfected cells; host or cells: T-REx-CHO (Chinese hamster ovary), tetracycline-induced
Procedure: (§1) Complementary DNAs of recombinant human, rat and mouse TRPM8 were stably transfected into Tetracycline-Regulated Expression cell line, T-REx-Chinese hamster ovary cell line from Invitrogen, Inc. (Carlsbad, CA). Twenty four hours before the assay, cells were seeded in Cytostar-T 96-well plates at a density of 3.0×10^4 per well, and TRPM8 channel expression was induced with 0.5 µg/ml tetracycline. On the day of the assay, culture media were removed, and cells were incubated with TRPM8 antibody (ACC-049), antagonist M8-B, or control IgG for 30 min before addition of ^45Ca^2+. Stock solutions of ACC-049, M8-B, and control IgG were diluted to the desired final concentrations in the assay buffer (F-12 Ham's containing 15 mM HEPES and 0.1 mg/ml BSA) keeping the final concentration of DMSO lower than 0.5% for M8-B. The activity of TRPM8 was monitored as function of cellular uptake of radioactive calcium. The final concentration of ^45Ca^2+in the ^45Ca^2+ uptake assay was 10 µCi/ml. […] For cold activation of TRPM8, cold assay buffer at 10°C was used. ACC-049 was assayed in cells stably expressing human, rat, or mouse TRPM8 channels. The other commercial antibodies listed in Table 1 were assayed at a single concentration in 30 µl in icilin induced activation of human TRPM8 channels. The TRPM8 antagonist M8-B was used as a positive control and control IgG was used as a negative control in all assays. TRPM8 activation was calculated as percent of control (POC) with agonist (cold, icilin or menthol) induced radioactive calcium uptake set as 100 percent and assay buffer only plus ^45Ca^2+ set as zero percent with exception of cold activation, where blockade with M8-B at 1 µM was set as zero percent. Evaluation of antagonism at heat activation of TRPV1 [26], and noxious cold temperature activation of TRPA1 [24] was conducted as reported previously.
(§2) GraphPad Prism 5.0 (GraphPad Software, Inc., San Diego, CA) software was used to plot the data and to calculate the 50% inhibitory concentrations (IC50) of compounds and antibodies using a sigmoidal dose-response equation.

[2] = target: human TRPV1 (Homo sapiens, UniProt Q8NER1); assay: heat activation of human TRPV1, 45Ca2+ uptake; details: ACC-049 and control IgG 2.5 µM; peptide 10 µM; Fig. 2
Procedure: as §1, with “ACC-049 was assayed in cells stably expressing human, rat, or mouse TRPM8 channels. The other commercial antibodies listed in Table 1 were assayed at a single concentration in 30 µl in icilin induced activation of human TRPM8 channels. The TRPM8 antagonist M8-B was used as a positive control and control IgG was used as a negative control in all assays.” left out, “Evaluation of antagonism at heat activation of TRPV1 [26], and noxious cold temperature activation of TRPA1 [24] was conducted as reported previously.” left out

[3] = target: T2, endogenous TRPM8 expressed in rat dorsal root ganglion neurons (Rattus norvegicus, UniProt Q8R455); assay: icilin-induced 45Ca2+ uptake assay in freshly isolated rat DRG neurons; details: 1 µM icilin; same single concentration/volume of antibodies; Fig. 6B
T2 construct: endogenous in cells; host or cells: primary dorsal root ganglion neurons from male Sprague Dawley rats

[4] = target: human TRPA1 (Homo sapiens, UniProt O75762); assay: noxious cold temperature activation of human TRPA1, 45Ca2+ uptake; details: ACC-049 and control IgG 2.5 µM; peptide 10 µM; Fig. 2
Procedure: as §1, with “ACC-049 was assayed in cells stably expressing human, rat, or mouse TRPM8 channels. The other commercial antibodies listed in Table 1 were assayed at a single concentration in 30 µl in icilin induced activation of human TRPM8 channels. The TRPM8 antagonist M8-B was used as a positive control and control IgG was used as a negative control in all assays.” left out, “Evaluation of antagonism at heat activation of TRPV1 [26], and noxious cold temperature activation of TRPA1 [24] was conducted as reported previously.” left out

[5] = target: T3, mouse TRPM8 (Mus musculus, UniProt Q8R4D5); assay: agonist-induced 45Ca2+ uptake assay, CHO cells expressing mouse TRPM8; details: mean ± SD
T3 construct: expressed in transfected cells; host or cells: T-REx-CHO (Chinese hamster ovary), tetracycline-induced
Procedure: as §1, §2

[6] = target: T4, rat TRPM8 (Rattus norvegicus, UniProt Q8R455); assay: agonist-induced 45Ca2+ uptake assay, CHO cells expressing rat TRPM8; details: mean ± SD
T4 construct: expressed in transfected cells; host or cells: T-REx-CHO (Chinese hamster ovary), tetracycline-induced
Procedure: as §1, §2

T3 sequence (Q8R4D5 whole entry): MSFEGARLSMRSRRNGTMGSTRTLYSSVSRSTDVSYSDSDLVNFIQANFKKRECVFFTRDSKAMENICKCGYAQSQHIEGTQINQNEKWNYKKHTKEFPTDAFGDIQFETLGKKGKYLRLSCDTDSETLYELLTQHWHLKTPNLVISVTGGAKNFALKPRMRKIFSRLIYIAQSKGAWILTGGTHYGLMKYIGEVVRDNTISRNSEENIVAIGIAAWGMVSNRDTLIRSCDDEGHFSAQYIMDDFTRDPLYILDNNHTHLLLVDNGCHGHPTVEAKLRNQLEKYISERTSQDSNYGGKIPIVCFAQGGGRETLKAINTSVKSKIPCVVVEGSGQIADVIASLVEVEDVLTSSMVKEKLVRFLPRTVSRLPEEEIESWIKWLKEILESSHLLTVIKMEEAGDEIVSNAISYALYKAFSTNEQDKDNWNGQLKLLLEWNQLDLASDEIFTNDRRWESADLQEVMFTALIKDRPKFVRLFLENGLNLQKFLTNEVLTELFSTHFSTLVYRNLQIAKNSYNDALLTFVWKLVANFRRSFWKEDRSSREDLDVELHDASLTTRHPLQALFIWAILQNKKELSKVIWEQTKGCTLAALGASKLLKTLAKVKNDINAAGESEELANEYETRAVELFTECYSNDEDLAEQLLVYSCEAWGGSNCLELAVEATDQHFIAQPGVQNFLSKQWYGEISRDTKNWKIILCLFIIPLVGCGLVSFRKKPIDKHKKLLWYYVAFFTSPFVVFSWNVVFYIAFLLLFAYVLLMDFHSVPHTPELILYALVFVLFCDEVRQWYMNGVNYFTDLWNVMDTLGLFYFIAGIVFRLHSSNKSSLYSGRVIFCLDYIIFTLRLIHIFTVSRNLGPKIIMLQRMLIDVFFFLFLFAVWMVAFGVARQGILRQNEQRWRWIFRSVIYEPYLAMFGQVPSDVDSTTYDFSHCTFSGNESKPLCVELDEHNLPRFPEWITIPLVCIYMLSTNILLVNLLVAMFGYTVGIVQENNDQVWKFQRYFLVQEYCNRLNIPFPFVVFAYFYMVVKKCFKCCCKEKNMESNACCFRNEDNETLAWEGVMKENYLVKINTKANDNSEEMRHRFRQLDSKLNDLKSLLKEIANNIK
T1 sequence (Q7Z2W7 whole entry): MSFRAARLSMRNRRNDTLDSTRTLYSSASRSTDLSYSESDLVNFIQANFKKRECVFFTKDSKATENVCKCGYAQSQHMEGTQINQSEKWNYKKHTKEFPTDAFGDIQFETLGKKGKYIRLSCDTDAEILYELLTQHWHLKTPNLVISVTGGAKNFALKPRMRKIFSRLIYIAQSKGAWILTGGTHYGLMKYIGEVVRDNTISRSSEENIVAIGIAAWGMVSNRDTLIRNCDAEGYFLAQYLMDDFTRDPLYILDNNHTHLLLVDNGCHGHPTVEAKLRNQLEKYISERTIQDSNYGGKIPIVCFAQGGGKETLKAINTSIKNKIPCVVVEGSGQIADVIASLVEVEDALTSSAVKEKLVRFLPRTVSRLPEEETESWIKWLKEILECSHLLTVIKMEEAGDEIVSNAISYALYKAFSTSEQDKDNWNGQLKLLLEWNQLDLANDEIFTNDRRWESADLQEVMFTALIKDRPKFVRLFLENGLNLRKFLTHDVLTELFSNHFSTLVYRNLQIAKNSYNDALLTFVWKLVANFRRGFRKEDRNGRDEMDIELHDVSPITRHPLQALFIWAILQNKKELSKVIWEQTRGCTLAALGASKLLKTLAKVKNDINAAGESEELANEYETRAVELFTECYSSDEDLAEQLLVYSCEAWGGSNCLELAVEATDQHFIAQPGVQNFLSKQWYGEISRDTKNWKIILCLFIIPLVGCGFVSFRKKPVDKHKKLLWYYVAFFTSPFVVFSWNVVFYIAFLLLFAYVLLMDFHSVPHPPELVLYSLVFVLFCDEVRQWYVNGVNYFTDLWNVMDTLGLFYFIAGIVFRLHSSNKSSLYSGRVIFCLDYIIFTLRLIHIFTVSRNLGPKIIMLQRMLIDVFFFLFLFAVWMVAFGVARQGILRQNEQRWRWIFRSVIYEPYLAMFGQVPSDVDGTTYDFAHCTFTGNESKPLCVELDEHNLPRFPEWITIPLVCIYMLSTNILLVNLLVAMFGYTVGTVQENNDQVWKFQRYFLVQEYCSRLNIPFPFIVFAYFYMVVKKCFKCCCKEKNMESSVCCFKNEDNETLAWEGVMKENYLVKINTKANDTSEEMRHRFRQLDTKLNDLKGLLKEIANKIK
T4 sequence (Q8R455 whole entry): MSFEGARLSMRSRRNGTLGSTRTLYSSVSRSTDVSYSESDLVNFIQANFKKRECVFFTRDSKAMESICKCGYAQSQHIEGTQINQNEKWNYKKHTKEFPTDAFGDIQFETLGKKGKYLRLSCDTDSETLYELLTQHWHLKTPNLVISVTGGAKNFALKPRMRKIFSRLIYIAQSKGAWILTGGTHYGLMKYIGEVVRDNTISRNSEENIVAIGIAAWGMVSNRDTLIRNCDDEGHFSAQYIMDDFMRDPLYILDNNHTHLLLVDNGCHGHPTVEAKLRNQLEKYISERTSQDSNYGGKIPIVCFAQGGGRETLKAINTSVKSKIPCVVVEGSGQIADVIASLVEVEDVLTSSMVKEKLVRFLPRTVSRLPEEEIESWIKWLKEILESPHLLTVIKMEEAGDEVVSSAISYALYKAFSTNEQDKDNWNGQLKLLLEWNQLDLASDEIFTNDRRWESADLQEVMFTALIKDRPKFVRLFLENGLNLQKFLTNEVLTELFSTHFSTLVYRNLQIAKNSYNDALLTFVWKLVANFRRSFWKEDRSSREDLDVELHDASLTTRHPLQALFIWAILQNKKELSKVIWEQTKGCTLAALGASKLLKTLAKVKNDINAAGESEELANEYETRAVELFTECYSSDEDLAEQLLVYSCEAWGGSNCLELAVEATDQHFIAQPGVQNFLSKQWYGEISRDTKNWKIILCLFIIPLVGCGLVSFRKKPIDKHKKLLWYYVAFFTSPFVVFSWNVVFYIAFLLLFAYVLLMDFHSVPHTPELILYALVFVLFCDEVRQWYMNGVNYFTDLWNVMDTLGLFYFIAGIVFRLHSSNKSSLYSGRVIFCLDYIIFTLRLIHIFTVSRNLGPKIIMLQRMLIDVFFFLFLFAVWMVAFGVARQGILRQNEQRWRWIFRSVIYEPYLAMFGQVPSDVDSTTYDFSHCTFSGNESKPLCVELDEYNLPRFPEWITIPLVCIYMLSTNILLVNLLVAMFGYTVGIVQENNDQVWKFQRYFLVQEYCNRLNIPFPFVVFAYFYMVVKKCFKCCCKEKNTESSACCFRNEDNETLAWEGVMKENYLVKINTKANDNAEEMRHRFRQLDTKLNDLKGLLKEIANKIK
T2 sequence (Q8R455 whole entry): as above
Chain of human TRPA1 (O75762 whole entry): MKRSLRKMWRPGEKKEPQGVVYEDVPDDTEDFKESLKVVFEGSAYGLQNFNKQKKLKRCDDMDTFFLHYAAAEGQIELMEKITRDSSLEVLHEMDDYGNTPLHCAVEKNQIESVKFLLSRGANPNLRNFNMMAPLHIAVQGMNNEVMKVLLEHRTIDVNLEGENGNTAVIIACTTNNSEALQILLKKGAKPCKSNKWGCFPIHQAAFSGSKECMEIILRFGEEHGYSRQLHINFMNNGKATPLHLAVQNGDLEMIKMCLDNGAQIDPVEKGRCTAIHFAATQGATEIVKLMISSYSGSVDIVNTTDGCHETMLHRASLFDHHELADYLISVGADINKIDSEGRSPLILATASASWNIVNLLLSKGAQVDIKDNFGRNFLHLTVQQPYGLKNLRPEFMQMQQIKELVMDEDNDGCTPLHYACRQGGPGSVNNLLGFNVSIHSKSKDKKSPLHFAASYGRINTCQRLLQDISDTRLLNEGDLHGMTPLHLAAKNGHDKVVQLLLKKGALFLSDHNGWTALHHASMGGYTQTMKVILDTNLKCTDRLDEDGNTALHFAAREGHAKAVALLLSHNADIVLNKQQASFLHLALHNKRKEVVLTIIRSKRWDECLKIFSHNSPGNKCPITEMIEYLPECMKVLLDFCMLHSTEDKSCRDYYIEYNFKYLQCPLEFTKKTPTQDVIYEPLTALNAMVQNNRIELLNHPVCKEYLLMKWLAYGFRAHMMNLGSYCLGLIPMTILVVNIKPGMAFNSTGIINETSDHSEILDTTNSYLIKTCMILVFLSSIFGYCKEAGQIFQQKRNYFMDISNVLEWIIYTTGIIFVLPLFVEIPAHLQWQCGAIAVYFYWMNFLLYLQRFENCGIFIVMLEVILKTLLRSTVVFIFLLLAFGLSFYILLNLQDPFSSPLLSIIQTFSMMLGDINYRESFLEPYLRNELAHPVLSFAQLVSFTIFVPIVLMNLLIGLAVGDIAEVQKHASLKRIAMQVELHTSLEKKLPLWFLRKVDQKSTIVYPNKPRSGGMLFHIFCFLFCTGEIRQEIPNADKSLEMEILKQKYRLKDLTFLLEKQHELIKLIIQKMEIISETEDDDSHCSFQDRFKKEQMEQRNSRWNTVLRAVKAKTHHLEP

Molecule | block of icilin-induced 45Ca2+ uptake, human TRPM8 in CHO cells ([1]; 1 µM icilin) | blockade of cold activation of human TRPM8, single concentration ([1]; ACC-049 and control IgG 2.5 µM, peptide 10 µM, cold, Fig. 2) | blockade of icilin activation of human TRPM8, single concentration ([1]; ACC-049 and control IgG 2.5 µM, peptide 10 µM, icilin, Fig. 2) | effect on heat activation of human TRPV1, single concentration [2] | block of icilin-induced 45Ca2+ uptake, rat DRG neurons [3] | effect on noxious cold temperature activation of human TRPA1, single concentration [4] | IC50 ([5]; 1 µM icilin, triplicate wells, read-out: IC50, icilin induced mouse TRPM8 channel activation) | IC50 ([5]; 100 µM menthol, triplicate wells, read-out: IC50, menthol induced mouse TRPM8 channel activation) | IC50 ([5]; cold 10°C, one experiment in triplicate wells, read-out: IC50, cold induced mouse TRPM8 channel activation) | IC50 ([1]; 1 µM icilin, triplicate wells, read-out: IC50, icilin induced human TRPM8 channel activation) | IC50 ([1]; 100 µM menthol, triplicate wells, read-out: IC50, menthol induced human TRPM8 channel activation) | IC50 ([1]; cold 10°C, one experiment in triplicate wells, read-out: IC50, cold induced human TRPM8 channel activation) | IC50 ([6]; 1 µM icilin, triplicate wells, read-out: IC50, icilin induced rat TRPM8 channel activation) | IC50 ([6]; 100 µM menthol, triplicate wells, read-out: IC50, menthol induced rat TRPM8 channel activation) | IC50 ([6]; cold 10°C, one experiment in triplicate wells, read-out: IC50, cold induced rat TRPM8 channel activation)
SDVD GTTYDFAHC (N-terminal SDVD) [peptide, cognate peptide of ACC-049, amino acid residues 917-929 of human TRPM8] | no effects | no effects | no effects | no effects | did not affect | no effects |  |  |  |  |  |  |  |  | 
COc1cc(CN(CCN)C(=O)c2cccs2)ccc1OCc1ccccc1 [M8-B] | fully; also recorded: completely blocked |  |  |  | full inhibition |  | 6 ± 1.1 nM | 2 ± 1.2 nM | 2 ± 1.2 nM | 11 ± 1.2 nM | 1 ± 1.4 nM | 3 ± 1.1 nM | 11 ± 1.1 nM | 2 ± 1.3 nM | 2 ± 1.2 nM
